Type in all cases: physicochemical
Data set [1] in a line: proton dissociation constants by UV-vis spectrophotometric titration. Particulars: for pK2 (H2L+) / pK3 (HL): Pro-SISC-Me; for pK1 (H2L+) / pK2 (HL): SISC. Here is the method:
An Agilent Cary 8454 diode array spectrophotometer (Agilent Technologies, Santa Clara, CA, USA) was used to record the UV-vis spectra at an interval of 200–800 nm. The path length was 1 or 2 cm. Spectrophotometric titrations were performed in water or in 30% (v/v) DMSO/H2O on samples containing the ligands at 50 μM–1 mM concentration, in the pH range from 1.0 to 12.5 in the absence or in the presence of 1 or 0.5 or 0.33 equiv. metal ions. Ka values of the ligands and the UV-vis spectra of the individual species were calculated by the computer program PSEQUAD [45].

Data set [2] is described as follows: stability constants of Cu(II) complexes from deconvolution of EPR spectra. The conditions noted are these: water, room temperature, I = 0.10 M (KCl). How it is done:
All EPR spectra were recorded with a BRUKER EleXsys E500 spectrometer (microwave frequency 9.54 GHz, microwave power 13 mW, modulation amplitude 5 G, modulation frequency 100 kHz, Bruker BioSpin Corporation, Billerica, MA, USA) at 77 K for the Cu(II)—SISC complexes and at room temperature for the Cu(II)—Pro-SISC-Me species. EPR spectra were recorded at different pH values at two metal-to-ligand concentration ratios: 0.25 mM Cu(II) and 0.25 mM or 0.50 mM SISC in 30% DMSO/water solution, and 1.0 mM Pro-SISC-Me and 1.0 mM or 0.5 mM Cu(II) in water. The ionic strength was adjusted with KCl (I = 0.1 M). KOH solution was added to the stock solution to change the pH between pH = 2.5–12.5, which was measured with a Radiometer PHM240 pH/ion Meter equipped with a Metrohm 6.0234.100 glass electrode. The isotropic EPR spectra were recorded at room temperature in a circulating system, and a Heidolph Pumpdrive 5101 peristaltic pump was used to circulate the solution from the titration vessel through a capillary tube into the cavity of the instrument. For the anisotropic EPR spectra, a pH titration was performed outside of the cavity and at selected pH values, and 200 μL samples were transferred from the titration vessel into EPR tubes and the spectra were recorded in a Dewar containing liquid nitrogen.
The anisotropic EPR spectra were analyzed with the EPR program. […]

The nature of data set [3]: cyclic voltammetry of the iron complexes. The conditions noted are these: for cathodic peak potential of the iron complexes at pH 7.6: pH 7.6, 1:2 metal-to-ligand, E vs. Ag/AgCl/KCl (Figure S13b). From the text: Further differences were observed when the redox behavior of the iron complexes was monitored by cyclic voltammetry. In the case of SISC, only a cathodic peak could be observed in the pH range of the formation of the Fe(III) complexes (not shown), unlike for Pro-SISC-Me (Figure 8b), where quasi-reversible processes could be seen in a wide pH range (3.9–10.8). The cathodic peak measured at pH 7.6 was located at much lower potential than in the case of the SISC complex (−0.59 V vs. −0.38 V, Figure S13b). […] To reveal the coordination mode in the Fe(III)-Pro-SISC-Me complexes, crystallization experiments were performed and single crystals were obtained for the Na[Fe(III)(Pro-SISC-MeH−2)2](H2O)4 complex.
Cyclic voltammograms of the Cu(II) and Fe(III) complexes in 30% (v/v) DMSO/H2O containing 1 mM Cu(NO3)2 or 1 mM or 0.5 mM FeCl3 and 1 mM ligand were recorded at 25.0 ± 0.1 °C. Ionic strength was 0.10 M (TBAN). Measurements were performed on a conventional three-electrode system under nitrogen atmosphere using an Autolab PGSTAT 204 potentiostat/galvanostat monitored by Metrohm’s Nova software (Metrohm Autolab B.V., Utrecht, The Netherlands). Samples were purged with argon for 15 min before recording the cyclic voltammograms. Platinum electrodes were used as the working and auxiliary electrode and Ag/AgCl/3 M KCl as a reference electrode. The electrochemical system was calibrated with an aqueous solution of K3[Fe(CN)6] (E1/2 = +0.386 V vs. NHE).

Regarding `Cc1cc(C=NNC(=N)N)c(O)c(CN2CCCC2C(=O)O)c1` (centres unmarked) [Pro-SISC-Me], in data set [1] (30% DMSO/H2O), the “pK2 (H2L+)” value is 7.07 ± 0.03 and the “pK3 (HL)” value worked out at 9.84 ± 0.03. Besides, in data set [1] (H2O), the “pK2 (H2L+)” value was determined as 7.30 ± 0.03 and the “pK3 (HL)” value is 9.67 ± 0.03. In data set [2], the “logβ [CuLH−1]” value is 6.50 and the “logβ [CuL]+” value is recorded as 14.78. In addition, the “E1/2 of the Fe(III)/Fe(II) redox couple of the iron complexes” value in data set [3] (30% (v/v) DMSO/H2O, 1:2 metal-to-ligand ratio) is given as −0.32 V vs. NHE. Further, in data set [3] (30% (v/v) DMSO/H2O), the “cathodic peak potential of the iron complexes at pH 7.6” value is −0.59 V.

Regarding `N=C(N)NN=Cc1ccccc1O` [SISC, 2-(2-hydroxybenzylidene)hydrazinecarboximidamide], in data set [1] (30% DMSO/H2O), the “pK1 (H2L+)” value turned out to be 7.56 ± 0.03 and the “pK2 (HL)” value came to 10.67 ± 0.03. Moreover, in data set [1] (H2O), the “pK1 (H2L+)” value is 7.64 ± 0.03 and the “pK2 (HL)” value was 10.12 ± 0.03. Besides, the “cathodic peak potential of the iron complex (only a cathodic peak)” value in data set [3] ([Fe(III)L2]+ complex) is given as −0.17 V vs. NHE. In addition, the “cathodic peak potential of the iron complexes at pH 7.6” value in data set [3] (30% (v/v) DMSO/H2O) is reported as −0.38 V.

The values are drawn from publication PMC9000575, “Solution Equilibrium Studies on Salicylidene Aminoguanidine Schiff Base Metal Complexes: Impact of the Hybridization with L-Proline on Stability, Redox Activity and Cytotoxicity” (Molecules, 2022).
